In patent publication US20220117957A1, “TREATMENT METHOD FOR CORONAVIRUS INFECTION” (priority 2020, published 2022) one finds recovery times, severity of symptoms and solubility data, which are given here for one molecule.

The subject of one data set is SARS-CoV-2. The class given is in vivo. The note with it: individuals infected with SARS-CoV-2 treated with Rifampin.
For data set [1] the following is noted: organic solvents; water at acidic pH; cited from earlier work.

`CO[C@H]1/C=C/O[C@@]2(C)Oc3c(C)c(O)c4c(O)c(c(/C=N/N5CCN(C)CC5)c(O)c4c3C2=O)NC(=O)/C(C)=C\C=C\[C@H](C)[C@H](O)[C@@H](C)[C@@H](O)[C@@H](C)[C@H](OC(C)=O)[C@@H]1C` [Rifampin]: in the data set on SARS-CoV-2, the recovery times entry was “much faster recovery times” and the severity of symptoms result is reported as “less severe symptoms”. Besides, in data set [1], the solubility result is “soluble in organic solvents and in water at acidic pH”.
